Each block holds one compound with its values, some of them ahead of it.
Tests used:
[1] = test system: iMet processing of 14-3-3γ in HUVEC; details: for signal of unprocessed 14-3-3γ in the presence of cycloheximide: HUVEC treated with cycloheximide prior to MetAP inhibitor
[2] = test system: Jurkat E6-1, HeLa, HEK293T, PC-3 and MCF-7; assay: iMet processing of 14-3-3γ by immunoblot in five neoplastic cell lines; type: cell-based, human; details: all five neoplastic cell lines, 100 nM, 24 hours
[3] = test system: initiator methionine of TXNL1 in HEK293T cells; assay: Initiator methionine release assay, TXNL1-3×Flag in HEK293T cells; type: cell-based, human; details: 10 μM
[4] = test system: initiator methionine of BTF3L4 in HEK293T cells; assay: Initiator methionine release assay, BTF3L4-3×Flag in HEK293T cells; type: cell-based, human; details: 10 μM 11j, 100 nM TNP-470
[5] = target: T1, HsMetAP1 (Homo sapiens, UniProt P53582); assay: ProIP-coupled MetAP activity assay, HsMetAP1 with Co; type: biochemical
[6] = patients with advanced cancer; cited from earlier work
[7] = test system: HDFa; assay: [3H]-thymidine incorporation assay, HDFa; type: cell-based; details: Homo sapiens, read-out: Inhibition of Cell Proliferation (EC50, μM) HDFa
[8] = target: HsMetAP2 (Homo sapiens, UniProt P50579); assay: ProIP-coupled MetAP activity assay, HsMetAP2 with Mn; type: biochemical
Chain of HsMetAP2 (P50579 whole entry): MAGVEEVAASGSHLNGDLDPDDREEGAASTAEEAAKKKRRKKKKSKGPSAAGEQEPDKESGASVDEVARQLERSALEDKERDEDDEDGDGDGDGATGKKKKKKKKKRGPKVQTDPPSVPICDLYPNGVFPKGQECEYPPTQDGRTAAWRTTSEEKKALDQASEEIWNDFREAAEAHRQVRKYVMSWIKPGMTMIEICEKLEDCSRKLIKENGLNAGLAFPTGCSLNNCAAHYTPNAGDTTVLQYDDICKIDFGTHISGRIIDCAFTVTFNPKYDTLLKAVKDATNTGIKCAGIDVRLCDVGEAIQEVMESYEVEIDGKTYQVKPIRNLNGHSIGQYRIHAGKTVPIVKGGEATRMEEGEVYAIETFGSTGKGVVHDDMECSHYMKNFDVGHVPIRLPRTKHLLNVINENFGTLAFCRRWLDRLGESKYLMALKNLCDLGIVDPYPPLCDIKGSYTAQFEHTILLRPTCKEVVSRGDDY

[9] = test system: Escherichia coli; details: at concentrations up to 1 mM; ref 46b; cited from earlier work
[10] = test system: iMet processing of 14-3-3γ in HDFa cells; details: 3–250 μM, 24 hours
[11] = target: T1, HsMetAP1; assay: LAO and HRP-coupled MetAP activity assay, HsMetAP1 with Zn; type: biochemical; details: concentrations up to 250 μM, Figure S3E
[12] = Solubility observed at highest doses tested in the proliferation assay; details: 90 μM for 2, 40 μM for 3 and 40 μM for 4

SMILES: CCCCCCCCCCCCCC(=O)O[C@H]1CC[C@H](NC(=O)[C@H](OC)[C@H](O)[C@@H](O)[C@H](O)/C=C/C(C)C)C(=O)NC1 [bengamide A]
signal of unprocessed 14-3-3γ in the presence of cycloheximide [1]: none of the MetAP inhibitors could generate a detectable signal
increase in ratio of unprocessed 14-3-3γ versus total 14-3-3γ ([1]; HUVEC, 24-hour treatment, 100 nM, Figure 2A): 8 fold
concentration of maximal response of accumulation of unprocessed 14-3-3γ ([1]; HUVEC, data not shown): around 10 nM
increase in ratio of unprocessed versus total 14-3-3γ [2]: no more than 2.6 fold

SMILES: COc1ccc(N2CCN(c3nc(-c4ccccn4)nc4ccccc34)CC2)cc1 [11j, 4-[4-(4-Methoxyphenyl)piperazin-1-yl]-2-(pyridin-2-yl)quinazoline]
signal of unprocessed 14-3-3γ in the presence of cycloheximide [1]: none of the MetAP inhibitors could generate a detectable signal
level of unprocessed 14-3-3γ over time ([1]; HUVEC, 10 μM, 1–7 hours): increased in a time-dependent manner
increase of the release of [35S]-Met from TXNL1-3×Flag, more than the vehicle [3]: 40 ± 17%
iMet retention of BTF3L4-3×Flag [4]: no appreciable increase

inhibitory activity against HsMetAP1 in the presence of Mn(II) / absence of Co(II) ([5]; 10 μM Mn(II)): completely lost the inhibitory activity
SMILES: Clc1nc(-c2ccccn2)nc2ccccc12 [7a, 4-Chloro-2-(pyridin-2-yl)quinazoline]

EC50 ([5]; EC50 (μM) HsMetAP1 Mn(II), Table 3, 10 μM Mn(II), mean ± SD): > 100 µM
SMILES: O=C(O)COc1ccc(N2CCN(c3nc(-c4ccccn4)nc4ccccc34)CC2)cc1 [11e, 2-(4-{4-[2-(Pyridin-2-yl)quinazolin-4-yl]piperazin-1-yl}phenoxy)acetic acid]

SMILES: CO[C@@H](C(=O)N[C@H]1CC[C@@H](OC(=O)C2CCCCC2)CNC1=O)[C@H](O)[C@@H](O)[C@H](O)/C=C/C(C)(C)C [LAF-389]
reason for termination of the clinical study [6]: cardiovascular toxicity

inhibitory activity against HsMetAP1 in the presence of Mn(II) / absence of Co(II) ([5]; 10 μM Mn(II)): completely lost the inhibitory activity
SMILES: c1ccc(NCCNc2nc(-c3ccccn3)nc3ccccc23)cc1 [10b, N^1-Phenyl-N^2-[2-(pyridin-2-yl)quinazolin-4-yl]ethane-1,2-diamine]

IC50 [5]: 24 µM
inhibitory activity against HsMetAP1 in the presence of Mn(II) / absence of Co(II) ([5]; 10 μM Mn(II)): could completely inhibit HsMetAP1
SMILES: c1ccc(CCNc2nc(-c3ccccn3)nc3ccccc23)cc1 [10a, N-Phenethyl-2-(pyridin-2-yl)quinazolin-4-amine]

SMILES: c1ccc(-c2ccccn2)nc1 [2,2′-Bipyridine, 2,2′-bipyridine]
EC50 [7]: 10 to 30 µM
ability to block the NME of 14-3-3γ in cells, lower than 11j ([1]; Figure 6B): at least 30 times
inhibition at 100 µM ([5]; read-out: inhibition of the activity of HsMetAP1 in the absence of Co(II)): ≤ 30%

increase in potency against HsMetAP1 with Co(II) compared with 10a [5]: 19 fold
SMILES: c1ccc(-c2nc(N3CCOCC3)c3ccccc3n2)nc1 [compound 17]

increase in potency against HsMetAP1 with Co(II) compared with 10a [5]: 7.8 fold
EC50 ([5]; EC50 (μM) HsMetAP1 Co(II), Table 2, 10 μM Co(II), mean ± SD of at least three determinations): 0.12 ± 0.02 µM
EC50 ([5]; EC50 (μM) HsMetAP1 Mn(II), Table 2, 10 μM Mn(II), mean ± SD): 5.3 ± 0.7 µM
increase in potency against HsMetAP1 with Mn(II) compared with 10a ([5]; Mn(II)): 4.5 fold
EC50 [8]: > 300 µM
SMILES: c1ccc(-c2nc(NCCc3c[nH]c4ccccc34)c3ccccc3n2)nc1 [10c, N-[2-(1H-indol-3-yl)ethyl]-2-(pyridin-2-yl)quinazolin-4-amine]

SMILES: CO[C@@H]1[C@H](OC(=O)NC(=O)CCl)CC[C@]2(CO2)[C@H]1[C@@]1(C)O[C@@H]1CC=C(C)C [TNP-470]
signal of unprocessed 14-3-3γ in the presence of cycloheximide [1]: none of the MetAP inhibitors could generate a detectable signal
iMet retention of BTF3L4-3×Flag [4]: no appreciable increase

inhibition of HsMetAP1 in the absence of Co(II) [11]: failed to inhibit
SMILES: c1ccc2[nH]c(-c3cscn3)nc2c1 [Thiabendazole, 4-(1H-1,3-benzodiazol-2-yl)-1,3-thiazole]
activity against the growth of Escherichia coli [9]: inactive
effect on the NME of 14-3-3γ [10]: did not affect
effect on the NME of 14-3-3γ ([1]; HUVEC, 3–250 μM, 24 hours): did not affect

SMILES: Cc1nc(-c2ccc(Cl)cn2)nc(NC[C@@H](NCCCCc2ccccc2)c2ccccc2)c1Cl [compound 3]
solubility at highest doses tested [12]: No solubility problems
cytotoxicity ([1]; 10 μM, most cells floating after 24 hours): severe cytotoxicity

SMILES: Cc1nc(-c2ccccn2)nc(NCCNc2ccc(C(F)(F)F)cn2)c1Cl [compound 4]
solubility at highest doses tested [12]: No solubility problems

SMILES: Cc1nc(-c2ccccn2)nc(NCCc2ccccc2)c1Cl [compound 2, 5-chloro-6-methyl-N-(2-phenylethyl)-2-pyridin-2-ylpyrimidine-4-amine]
increase in ratio when TNP-470 was supplemented ([1]; HUVEC treated with 30 μM compound 2 plus TNP-470): 3.5 fold
